These are literature values, as cited in paper PMC11206245 (Pharmaceuticals, 2024).

Where two headings read alike, the source gives them in different places.

Details of data set [1]: method as in PMID 22124669, PMID 20618337. As to conditions: humans; cited from earlier work.
In a further data set the test system is dogs. On the set-up: method as in PMID 15986212. The settings on record: cited from earlier work.

As to `CO[C@H]1/C=C\C=C(/C)C(=O)NC2=CC(=O)C(N)=C(C[C@@H](C)C[C@H](OC)[C@H](O)[C@@H](C)/C=C(\C)[C@@H]1OC(N)=O)C2=O` [17-AG, 17-amino-geldanamycin], in data set [1], the half-life was 6.2 to 7.6 h.
With `CO[C@H]1/C=C\C=C(/C)C(=O)NC2=CC(=O)C(NCCN(C)C)=C(C[C@@H](C)C[C@H](OC)[C@H](O)[C@@H](C)/C=C(\C)[C@@H]1OC(N)=O)C2=O` [17-DMAG, 17-dimethylaminoethylamino-17-demetoxigeldanamycin], the Toxicity outcome in the data set with dogs (16 mg/m^2 orally) is “Toxicity was also observed”; with dogs (daily intravenous dose of 8 mg/m^2), “Toxicity was also observed”; in the data set on dogs (intravenous daily doses of 16 mg/m^2), “fatal”.
